In patent publication EP4653437A2 (Innovo Therapeutics Inc., priority 2023, dated 2024):

How the values were obtained:
[1] = target: T1, human 15-PGDH (Homo sapiens, UniProt P15428); assay: Evaluation of 15-PGDH inhibitory activity (fluorescence enzyme assay, NAD+/PGE2); type: biochemical; settings: human 15-PGDH enzyme, fluorescence Vmax
T1 construct: purchased R&D System 5660-DH
T1 sequence (P15428 1-266): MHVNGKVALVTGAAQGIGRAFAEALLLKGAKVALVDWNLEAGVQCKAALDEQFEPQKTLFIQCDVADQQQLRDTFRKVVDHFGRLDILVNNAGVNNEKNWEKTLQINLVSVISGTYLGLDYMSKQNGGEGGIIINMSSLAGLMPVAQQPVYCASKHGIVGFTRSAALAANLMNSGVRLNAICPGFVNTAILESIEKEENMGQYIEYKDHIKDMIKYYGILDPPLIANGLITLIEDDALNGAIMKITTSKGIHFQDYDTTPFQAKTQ
Experimental: 15-PGDH inhibition activity of Example compounds was measured as follows. 6.7 ng of human 15-PGDH (R&D System# 5660-DH) enzyme (10 µL) was added to a black 96 well plate, 60 µL of buffer (50 mM Tris-HCl, pH 7.5, 0.01% Tween 20) was added, and 10 µL of 200 µM β-Nicotinamide adenine dinucleotide sodium salt (Sigma, Cat# N0632-5G) was added. 10 µL of (10x) compound solution in DMSO was added and reacted for 10 minutes at room temperature.

[2] = test system: A549 cells; assay: Measurement of PGE2-increasing activity in A549 cells (IL-1β stimulated, PGE2 quantified in supernatant); type: cell-based; settings: Homo sapiens, 24 h; concentration of 1 µM of each compound; IL-1β treated A549 cells; read-out: Increased PGE2 production in A549 cells
Experimental: A549 cells were prepared at a cell number of 1 x 10^5/mL in F12K medium containing 10% FBS (Fetal Bovine Serum), and 2 x 10^4/200 µL was added to each well of a 96-well cell culture plate, and then cultured in an incubator with 5% CO2 at 37 °C for 24 hours. After the culture was complete and all F12K medium was removed, all wells were washed once with 100 µL of PBS, and treated with 160 µL of serum-free F12K medium. Then, 20 µL of IL-1β diluted 10-fold to a concentration of 1 ng/mL in serum-free F12K medium was treated to wells to be treated with IL-1β, and 20 µL of serum-free F12K medium was treated to wells not treated with IL-1β. For the wells to be treated with the compound, 20 µL of the compound dissolved in 100% DMSO was diluted to a concentration 10 times of the desired compound concentration in serum-free F12K medium so that the final DMSO concentration treated to the cells was 0.1%, and for the wells not to be treated with the compound, 20 µL of DMSO diluted in serum-free F12K medium so that the final DMSO concentration treated to the cells was 0.1% was treated. In order to confirm the increase or decrease in the secretion amount of PGE2 in the supernatant collected after culturing for 24 hours in an incubator with 5% CO2 at 37 °C, PGE2 was quantified using the Prostaglandin E2 Parameter (SKGE004B).

SMILES	IC50 [1]	fold induction at 1 µM [2]
Cn1ccc(NC(=O)c2cncc(-c3cccc4c(C(=O)N5CCCCC5)cnn34)c2)n1 [Example 193, N-(1-methyl-1H-pyrazol-3-yl)-5-(3-(piperidine-1-carbonyl)pyrazolo[1,5-a]pyridin-7-yl)nicotinamide]	≤ 0.1 µM	> 1.5
O=C(c1ncc(-c2cccc3c(C(=O)N4CCCCC4)cnn23)cc1Cl)N1CCC1 [Example 286, [7-[6-(azetidine-1-carbonyl)-5-chloro-3-pyridyl]pyrazolo[1,5-a]pyridin-3-yl]-(1-piperidyl)methanone]	≤ 0.1 µM	> 1.5
O=C(Cc1cccnc1)Nc1c(F)cc(-c2cccc3c(C(=O)N4CCCCC4)cnn23)cc1F [Example 278, N-(2,6-difluoro-4-(3-(piperidine-1-carbonyl)pyrazolo[1,5-a]pyridin-7-yl)phenyl)-2-(pyridin-3-yl)acetamide]	≤ 0.1 µM	> 1.5
Cn1nccc1-c1cc(-c2cccc3c(C(=O)N4CCCCC4)cnn23)cc(N2CC(O)C2)n1 [Example 357, (7-(2-(3-hydroxyazetidin-1-yl)-6-(1-methyl-1H-pyrazol-5-yl)pyridin-4-yl)pyrazolo[1,5-a]pyridin-3-yl)(piperidin-1-yl)methanone]	≤ 0.1 µM	> 1.5
O=C(c1cnn2c(-c3cnc(O)nc3)cccc12)N1CCCCC1 [Example 294, [7-(2-hydroxypyrimidin-5-yl)pyrazolo[1,5-a]pyridin-3-yl]-(1-piperidyl)methanone]	≤ 0.1 µM	< 1.5
Cc1noc(C)c1-c1cc(-c2cccc3c(C(=O)N4CCCCC4)cnn23)cc(N2CCOCC2)n1 [Example 371, (7-(2-(3,5-dimethylisoxazol-4-yl)-6-morpholinopyridin-4-yl)pyrazolo[1,5-a]pyridin-3-yl)(piperidin-1-yl)methanone]	≤ 0.1 µM	> 1.5
O=C(c1cnn2c(-c3cc(-c4cncc(F)c4)nc(N4CCOC4=O)c3)cccc12)N1CCCCC1 [Example 370, 3-(5'-fluoro-4-(3-(piperidine-1-carbonyl)pyrazolo[1,5-a]pyridin-7-yl)-[2,3'-bipyridin]-6-yl)oxazolidin-2-one]	≤ 0.1 µM	> 1.5
O=C(c1cnn2c(-c3ccc(N4C5CCC4CC5)nc3)cccc12)N1CCCCC1 [Example 217]	≤ 0.1 µM	> 1.5
CN(C)CC(=O)Nc1ccc(-c2cccc3c(C(=O)N4CCCCC4)cnn23)cn1 [Example 104, 2-(dimethylamino)-N-(5-(3-(piperidine-1-carbonyl)pyrazolo[1,5-a]pyridin-7-yl)pyridin-2-yl)acetamide]	≤ 0.1 µM	> 1.5
Cn1cnc(Nc2cccc3c(C(=O)N4CCCCC4)cnn23)cc1=O [Example 236, 3-methyl-6-[[3-(piperidine-1-carbonyl)pyrazolo[1,5-a]pyridin-7-yl]amino]pyrimidin-4-one]	≤ 0.1 µM	> 1.5
Cc1noc(C)c1-c1ncc(-c2cccc3c(C(=O)N4CCCCC4)cnn23)cc1F [Example 381, [7-[6-(3,5-dimethylisoxazol-4-yl)-5-fluoro-3-pyridyl]pyrazolo[1,5-a]pyridin-3-yl]-(1-piperidyl)methanone]	≤ 0.1 µM	> 1.5
CN1CCN(C(=O)c2cncc(-c3cccc4c(C(=O)N5CCCCC5)cnn34)c2)CC1 [Example 49, (4-methylpiperazin-1-yl)(5-(3-(piperidine-1-carbonyl)pyrazolo[1,5-a]pyridin-7-yl)pyridin-3-yl)methanone]	≤ 0.1 µM	> 1.5
O=C(c1cnn2c(Nc3cc(=O)[nH]cn3)cccc12)N1CCCCC1 [Example 235, 4-[[3-(piperidine-1-carbonyl)pyrazolo[1,5-a]pyridin-7-yl]amino]-1H-pyrimidin-6-one]	≤ 0.1 µM	> 1.5
Cc1ncc(-c2cc(-c3cccc4c(C(=O)N5CCCCC5)cnn34)cc(N3CCOCC3)n2)cn1 [Example 377, (7-(2-(2-methylpyrimidin-5-yl)-6-morpholinopyridin-4-yl)pyrazolo[1,5-a]pyridin-3-yl)(piperidin-1-yl)methanone]	≤ 0.1 µM	> 1.5
CCCCC(=O)c1cnn2c(-c3cnc4ccccc4c3)cccc12 [Example 151, 1-(7-(quinolin-3-yl)pyrazolo[1,5-a]pyridin-3-yl)pentan-1-one]	≤ 0.1 µM	> 1.5
O=C(c1ncc(-c2cccc3c(C(=O)N4CCCCC4)cnn23)cc1F)N1CCC1 [Example 248, [7-[6-(azetidine-1-carbonyl)-5-fluoro-3-pyridyl]pyrazolo[1,5-a]pyridin-3-yl]-(1-piperidyl)methanone]	≤ 0.1 µM	> 1.5

Further lines, with some results ahead:

IC50 [1]	SMILES	fold induction at 1 µM [2]
≤ 0.1 µM	O=C1NCc2ccc(-c3cccc4c(C(=O)N5CCCC(C(F)(F)F)C5)cnn34)cc21 (stereo not shown) [Example 398, 6-(3-(3-(trifluoromethyl)piperidine-1-carbonyl)pyrazolo[1,5-a]pyridin-7-yl)isoindolin-1-one]	> 1.5
≤ 0.1 µM	O=C(c1cnn2c(-c3ccc(Cl)nc3)cccc12)N1CCCCC1 [Example 314, (7-(6-chloropyridin-3-yl)pyrazolo[1,5-a]pyridin-3-yl)(piperidin-1-yl)methanone]	> 1.5
≤ 0.1 µM	CCC1CCCN(C(=O)c2cnn3c(-c4ccc(N5CCOC5=O)nc4)cccc23)C1 (stereo not shown) [Example 354, 3-(5-(3-(3-ethylpiperidine-1-carbonyl)pyrazolo[1,5-a]pyridin-7-yl)pyridin-2-yl)oxazolidin-2-one]	> 1.5
≤ 0.1 µM	O=C(c1cnn2c(-c3ccc(-c4cnc(O)nc4)cc3)cccc12)N1CCCCC1 [Example 306, [7-[4-(2-hydroxypyrimidin-5-yl)phenyl]pyrazolo[1,5-a]pyridin-3-yl]-(1-piperidyl)methanone]	> 1.5
≤ 0.1 µM	N#CCNC(=O)c1ccc(-c2cccc3c(C(=O)N4CCCCC4)cnn23)cn1 [Example 86, N-(cyanomethyl)-5-(3-(piperidine-1-carbonyl)pyrazolo[1,5-a]pyridin-7-yl)picolinamide]	> 1.5
≤ 0.1 µM	Cc1nc(-c2ccc(-c3cccc4c(C(=O)N5CCCCC5)cnn34)cc2)cn1C [Example 358]	> 1.5
≤ 0.1 µM	CNC(=O)c1ccc(-c2cccc3c(C(=O)N4CCCCC4)cnn23)cc1 [Example 58, N-methyl-4-(3-(piperidine-1-carbonyl)pyrazolo[1,5-a]pyridin-7-yl)benzamide]	> 1.5
≤ 0.1 µM	C[C@@H]1CCCN(C(=O)c2cnn3c(-c4ccc5c(c4)C(=O)NC5)cccc23)C1 [Example 385, (R)-6-(3-(3-methylpiperidine-1-carbonyl)pyrazolo[1,5-a]pyridin-7-yl)isoindolin-1-one]	> 1.5
≤ 0.1 µM	O=C(c1cnn2c(-c3ccc4c(=O)[nH]ncc4c3)cccc12)N1CCCCC1 [Example 233, 6-(3-(piperidine-1-carbonyl)pyrazolo[1,5-a]pyridin-7-yl)phthalazin-1(2H)-one]	> 1.5
≤ 0.1 µM	O=C(c1cncc(-c2cccc3c(C(=O)N4CCCCC4)cnn23)c1)N1CC(O)C1 [Example 42, (3-hydroxyazetidin-1-yl)(5-(3-(piperidine-1-carbonyl)pyrazolo[1,5-a]pyridin-7-yl)pyridin-3-yl)methanone]	> 1.5
≤ 0.1 µM	O=C(c1cnn2c(-c3cnc(-c4nnco4)c(F)c3)cccc12)N1CCCCC1 [Example 380, [7-[5-fluoro-6-(1,3,4-oxadiazol-2-yl)-3-pyridyl]pyrazolo[1,5-a]pyridin-3-yl]-(1-piperidyl)methanone]	> 1.5
≤ 0.1 µM	Nc1n[nH]c2cc(-c3cccc4c(C(=O)N5CCCCC5)cnn34)ccc12 [Example 309, [7-(3-amino-1H-indazol-6-yl)pyrazolo[1,5-a]pyridin-3-yl]-(1-piperidyl)methanone]	> 1.5
≤ 0.1 µM	Cc1nnc(-c2ccc(-c3cccc4c(C(=O)N5CCCCC5)cnn34)cc2)o1 [Example 348, [7-[4-(5-methyl-1,3,4-oxadiazol-2-yl)phenyl]pyrazolo[1,5-a]pyridin-3-yl]-(1-piperidyl)methanone]	> 1.5
